We go through one compound from ChEMBL document CHEMBL5370643, “Discovery of MK-1468: A Potent, Kinome-Selective, Brain-Penetrant Amidoisoquinoline LRRK2 Inhibitor for the Potential Treatment of Parkinson's Disease” (J Med Chem, 2023).

Each structure is given as a SMILES string.

In one series the target is hERG (KCNH2) (Homo sapiens, UniProt Q12809). The series can be described thus: Inhibition of hERG expressed in CHO cells at 30 uM by QPatch voltage clamp assay relative to control. The class given is toxicity, cell-based. The following applies: CHO cells expressing hERG.
Chain of hERG (KCNH2) (Q12809 whole entry): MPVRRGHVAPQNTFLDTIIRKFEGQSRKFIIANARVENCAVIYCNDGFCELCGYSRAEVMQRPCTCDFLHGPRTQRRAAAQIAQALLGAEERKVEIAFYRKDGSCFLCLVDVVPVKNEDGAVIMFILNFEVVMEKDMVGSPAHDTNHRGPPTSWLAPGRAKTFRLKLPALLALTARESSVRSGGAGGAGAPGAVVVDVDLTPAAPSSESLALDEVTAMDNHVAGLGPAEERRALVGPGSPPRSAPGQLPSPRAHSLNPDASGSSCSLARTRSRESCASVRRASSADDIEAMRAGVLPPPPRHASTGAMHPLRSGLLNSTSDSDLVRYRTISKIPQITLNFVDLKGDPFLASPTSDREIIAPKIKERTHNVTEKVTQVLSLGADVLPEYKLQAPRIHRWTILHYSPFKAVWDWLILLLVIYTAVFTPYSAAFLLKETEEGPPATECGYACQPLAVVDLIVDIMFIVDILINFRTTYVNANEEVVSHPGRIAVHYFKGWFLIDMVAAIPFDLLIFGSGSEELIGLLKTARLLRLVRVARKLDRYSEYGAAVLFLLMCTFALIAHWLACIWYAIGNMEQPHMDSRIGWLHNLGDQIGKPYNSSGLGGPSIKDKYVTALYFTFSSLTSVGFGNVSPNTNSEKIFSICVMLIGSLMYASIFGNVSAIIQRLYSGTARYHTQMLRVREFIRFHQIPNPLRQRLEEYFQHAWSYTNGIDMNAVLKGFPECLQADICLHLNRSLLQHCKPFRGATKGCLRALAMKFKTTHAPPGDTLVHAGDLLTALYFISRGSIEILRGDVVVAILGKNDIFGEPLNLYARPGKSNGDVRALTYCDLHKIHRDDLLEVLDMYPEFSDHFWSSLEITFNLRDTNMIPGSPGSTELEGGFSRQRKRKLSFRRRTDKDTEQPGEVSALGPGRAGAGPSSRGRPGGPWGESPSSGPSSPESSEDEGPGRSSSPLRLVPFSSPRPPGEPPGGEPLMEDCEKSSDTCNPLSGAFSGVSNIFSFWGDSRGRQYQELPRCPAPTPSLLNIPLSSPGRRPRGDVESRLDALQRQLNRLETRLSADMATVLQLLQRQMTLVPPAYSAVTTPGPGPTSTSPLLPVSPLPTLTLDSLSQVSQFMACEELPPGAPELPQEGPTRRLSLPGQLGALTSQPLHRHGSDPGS
Series [1] in a line: Cardiotoxicity in guinea pig assessed as effect on PR interval at 5 to 20 mg/kg, iv administered continuously for 20 min by ECG analysis. The class given is toxicity, organism-based, Cavia porcellus. The following applies: in vivo, dose 5-20 mg/kg.
The nature of series [2]: Toxicity in Wistar-Han rat assessed as erosion of nonglandular stomach at 750 mg/kg, po administered once daily for 7 days. Format: organism-based. The following applies: in vivo, 168 h, time 7 day.
Series [3] is described as follows: Cardiotoxicity in guinea pig assessed as effect on QRS interval at 5 to 20 mg/kg, iv administered continuously for 20 min by ECG analysis. The following applies: in vivo, dose 5-20 mg/kg. The class given is toxicity, organism-based, Cavia porcellus.
A short description of series [4]: AUCtau in Wistar-Han rat at 48 mg administered twice a day by LC-MS/MS analysis. The following applies: in vivo. The class given is ADME. Set-up: dose 48 mg.

One may read the inhibition as the percentage by which the read-out fell short of the control. The term AUC denotes concentration integrated over time. `C[C@@]1(N2CCN(c3cc4cc(NC(=O)[C@H]5CC56CCOCC6)ncc4cc3Cl)CC2)COC[C@@H]1O` yielded an inhibition at 30 µM against hERG (KCNH2) of 39%. For the same compound, the values for the Activity entry in series [1], in series [2] and in series [3] were “Non-Toxic”, “Toxic” and “Non-Toxic”, respectively. This compound showed an AUC in series [4] of 3 µM·h.
